Data as given in PubChem BioAssay (NCI).
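Results reflect a 48-hour exposure of cells in 96-well plates to compound at five concentrations. Here, GI50 denotes the concentration required for 50% inhibition of growth. TGI marks complete inhibition of growth.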

Experiments:
Assay in all cases: NCI-60 cell line screen, 48 h
T-47D breast = tested on: T-47D breast
TK-10 renal = tested on: TK-10 renal
SNB-19 CNS = tested on: SNB-19 CNS
HCT-116 colon = tested on: HCT-116 colon
SF-539 CNS = tested on: SF-539 CNS
OVCAR-4 ovarian = tested on: OVCAR-4 ovarian
CCRF-CEM leukemia = tested on: CCRF-CEM leukemia
SR leukemia = tested on: SR leukemia
HS 578T breast = tested on: HS 578T breast
SK-OV-3 ovarian = tested on: SK-OV-3 ovarian
NCI-H460 lung = tested on: NCI-H460 lung
OVCAR-5 ovarian = tested on: OVCAR-5 ovarian
PC-3 prostate = tested on: PC-3 prostate
MCF7 breast = tested on: MCF7 breast
786-0 renal = tested on: 786-0 renal
LOX IMVI melanoma = tested on: LOX IMVI melanoma
M14 melanoma = tested on: M14 melanoma
OVCAR-8 ovarian = tested on: OVCAR-8 ovarian
HT29 colon = tested on: HT29 colon
UO-31 renal = tested on: UO-31 renal
RPMI-8226 leukemia = tested on: RPMI-8226 leukemia
SK-MEL-28 melanoma = tested on: SK-MEL-28 melanoma
HCT-15 colon = tested on: HCT-15 colon
SK-MEL-5 melanoma = tested on: SK-MEL-5 melanoma
OVCAR-3 ovarian = tested on: OVCAR-3 ovarian
A549 NSCLC = tested on: A549 NSCLC
SN12C renal = tested on: SN12C renal
HL-60(TB) leukemia = tested on: HL-60(TB) leukemia
MOLT-4 leukemia = tested on: MOLT-4 leukemia
ACHN renal = tested on: ACHN renal
U251 CNS = tested on: U251 CNS
SF-268 CNS = tested on: SF-268 CNS
NCI-H522 lung = tested on: NCI-H522 lung
A498 renal = tested on: A498 renal
IGROV1 ovarian = tested on: IGROV1 ovarian
COLO 205 colon = tested on: COLO 205 colon
CAKI-1 renal = tested on: CAKI-1 renal
HCC-2998 colon = tested on: HCC-2998 colon
NCI-H226 lung = tested on: NCI-H226 lung
BT-549 breast = tested on: BT-549 breast
NCI-H23 lung = tested on: NCI-H23 lung
NCI/ADR-RES ovarian = tested on: NCI/ADR-RES ovarian
SNB-75 CNS = tested on: SNB-75 CNS
HOP-62 NSCLC = tested on: HOP-62 NSCLC
SK-MEL-2 melanoma = tested on: SK-MEL-2 melanoma
MALME-3M melanoma = tested on: MALME-3M melanoma
MDA-MB-435 = tested on: MDA-MB-435
SF-295 CNS = tested on: SF-295 CNS
SW-620 colon = tested on: SW-620 colon
KM12 colon = tested on: KM12 colon
MDA-MB-231 breast = tested on: MDA-MB-231 breast
EKVX NSCLC = tested on: EKVX NSCLC
DU-145 prostate = tested on: DU-145 prostate
UACC-62 melanoma = tested on: UACC-62 melanoma
K-562 leukemia = tested on: K-562 leukemia
RXF 393 renal = tested on: RXF 393 renal
HOP-92 NSCLC = tested on: HOP-92 NSCLC
UACC-257 melanoma = tested on: UACC-257 melanoma

`O=S(=O)(CCn1c(Sc2ccccc2)c(Sc2ccccc2)c2ccccc21)c1ccccc1` was tested, and the TGI (T-47D breast) was > 100 µM, the TGI (TK-10 renal) was > 100 µM and the TGI (SNB-19 CNS) was > 100 µM. The TGI (HCT-116 colon) was > 100 µM, the TGI (SF-539 CNS) was > 100 µM and the TGI (OVCAR-4 ovarian) was > 100 µM. The TGI (CCRF-CEM leukemia) was > 100 µM, the TGI (SR leukemia) was > 100 µM and the TGI (HS 578T breast) was > 100 µM. The TGI (SK-OV-3 ovarian) was > 100 µM, the TGI (NCI-H460 lung) was > 100 µM and the TGI (OVCAR-5 ovarian) was > 100 µM. For the same molecule, the TGI (PC-3 prostate) was > 100 µM, the TGI (MCF7 breast) was > 100 µM and the TGI (786-0 renal) was > 100 µM. The TGI (LOX IMVI melanoma) was > 100 µM, the TGI (M14 melanoma) was > 100 µM and the TGI (OVCAR-8 ovarian) was > 100 µM. For the same molecule, the TGI (HT29 colon) was > 100 µM, the TGI (UO-31 renal) was > 100 µM and the TGI (RPMI-8226 leukemia) was > 100 µM. For the same molecule, the TGI (SK-MEL-28 melanoma) was > 100 µM, the TGI (HCT-15 colon) was > 100 µM and the TGI (SK-MEL-5 melanoma) was > 100 µM. For the same molecule, the TGI (OVCAR-3 ovarian) was > 100 µM, the TGI (A549 NSCLC) was > 100 µM and the TGI (SN12C renal) was > 100 µM. For the same molecule, the TGI (HL-60(TB) leukemia) was > 100 µM, the TGI (MOLT-4 leukemia) was > 100 µM and the TGI (ACHN renal) was > 100 µM. For the same molecule, the TGI (U251 CNS) was > 100 µM, the TGI (SF-268 CNS) was > 100 µM and the TGI (NCI-H522 lung) was > 100 µM. For the same molecule, the TGI (A498 renal) was > 100 µM, the TGI (IGROV1 ovarian) was > 100 µM and the TGI (COLO 205 colon) was > 100 µM. The TGI (CAKI-1 renal) was > 100 µM, the TGI (HCC-2998 colon) was > 100 µM and the TGI (NCI-H226 lung) was > 100 µM. The TGI (BT-549 breast) was > 100 µM, the TGI (NCI-H23 lung) was > 100 µM and the TGI (NCI/ADR-RES ovarian) was > 100 µM. The TGI (SNB-75 CNS) was > 100 µM, the TGI (HOP-62 NSCLC) was > 100 µM and the TGI (SK-MEL-2 melanoma) was > 100 µM. For the same molecule, the TGI (MALME-3M melanoma) was > 100 µM, the TGI (MDA-MB-435) was > 100 µM and the TGI (SF-295 CNS) was > 100 µM. The TGI (SW-620 colon) was > 100 µM, the TGI (KM12 colon) was > 100 µM and the TGI (MDA-MB-231 breast) was > 100 µM. The TGI (EKVX NSCLC) was > 100 µM, the TGI (DU-145 prostate) was > 100 µM and the TGI (UACC-62 melanoma) was > 100 µM. The TGI (K-562 leukemia) was > 100 µM.
In the case of `Cc1cccc(NC(=O)Cn2cnc3sc(C(=O)OC(C)C)c(C)c3c2=O)c1`, the GI50 (T-47D breast) is reported as > 50 µM, the TGI (T-47D breast) is reported as > 50 µM and the GI50 (TK-10 renal) is reported as 16.7 µM. The TGI (TK-10 renal) was > 50 µM, the GI50 (SNB-19 CNS) was 14.1 µM and the TGI (SNB-19 CNS) was 38.6 µM. For the same molecule, the GI50 (HCT-116 colon) was 15.6 µM, the TGI (HCT-116 colon) was > 50 µM and the GI50 (SF-539 CNS) was 8.77 µM. The TGI (SF-539 CNS) was 21.5 µM, the GI50 (CCRF-CEM leukemia) was > 50 µM and the TGI (CCRF-CEM leukemia) was > 50 µM. The GI50 (SR leukemia) was > 50 µM, the TGI (SR leukemia) was > 50 µM and the GI50 (HS 578T breast) was 16.5 µM. For the same molecule, the TGI (HS 578T breast) was > 50 µM, the GI50 (SK-OV-3 ovarian) was 26.8 µM and the TGI (SK-OV-3 ovarian) was > 50 µM. For the same molecule, the GI50 (NCI-H460 lung) was 25.2 µM, the TGI (NCI-H460 lung) was > 50 µM and the GI50 (PC-3 prostate) was > 50 µM. For the same molecule, the TGI (PC-3 prostate) was > 50 µM, the GI50 (MCF7 breast) was 38.2 µM and the TGI (MCF7 breast) was > 50 µM. For the same molecule, the GI50 (786-0 renal) was 32.9 µM, the TGI (786-0 renal) was > 50 µM and the GI50 (LOX IMVI melanoma) was 11.2 µM. For the same molecule, the TGI (LOX IMVI melanoma) was 35.9 µM, the GI50 (M14 melanoma) was > 50 µM and the TGI (M14 melanoma) was > 50 µM. For the same molecule, the GI50 (OVCAR-8 ovarian) was 17.4 µM, the TGI (OVCAR-8 ovarian) was > 50 µM and the GI50 (UO-31 renal) was > 50 µM. The TGI (UO-31 renal) was > 50 µM, the GI50 (RPMI-8226 leukemia) was > 50 µM and the TGI (RPMI-8226 leukemia) was > 50 µM. For the same molecule, the GI50 (SK-MEL-28 melanoma) was 16.6 µM, the TGI (SK-MEL-28 melanoma) was > 50 µM and the GI50 (HCT-15 colon) was 32.6 µM. For the same molecule, the TGI (HCT-15 colon) was > 50 µM, the GI50 (SK-MEL-5 melanoma) was 20.7 µM and the TGI (SK-MEL-5 melanoma) was > 50 µM. The GI50 (OVCAR-3 ovarian) was 33.4 µM, the TGI (OVCAR-3 ovarian) was > 50 µM and the GI50 (A549 NSCLC) was 16.4 µM. For the same molecule, the TGI (A549 NSCLC) was > 50 µM, the GI50 (SN12C renal) was 7.66 µM and the TGI (SN12C renal) was 22.3 µM. The GI50 (HL-60(TB) leukemia) was > 50 µM, the TGI (HL-60(TB) leukemia) was > 50 µM and the GI50 (MOLT-4 leukemia) was > 50 µM. The TGI (MOLT-4 leukemia) was > 50 µM, the GI50 (ACHN renal) was 9.73 µM and the TGI (ACHN renal) was 26.6 µM. It also gave a GI50 (U251 CNS) of 12.6 µM, a TGI (U251 CNS) of 31 µM and a GI50 (SF-268 CNS) of 18.8 µM. For the same molecule, the TGI (SF-268 CNS) was > 50 µM, the GI50 (RXF 393 renal) was 7.1 µM and the TGI (RXF 393 renal) was 22.7 µM. The GI50 (NCI-H522 lung) was 12.3 µM, the TGI (NCI-H522 lung) was 44.6 µM and the GI50 (A498 renal) was 16.1 µM. The TGI (A498 renal) was > 50 µM, the GI50 (IGROV1 ovarian) was 16.3 µM and the TGI (IGROV1 ovarian) was > 50 µM. The GI50 (COLO 205 colon) was > 50 µM, the TGI (COLO 205 colon) was > 50 µM and the GI50 (CAKI-1 renal) was 45.9 µM. The TGI (CAKI-1 renal) was > 50 µM, the GI50 (BT-549 breast) was 8.21 µM and the TGI (BT-549 breast) was 25.2 µM. The GI50 (HOP-92 NSCLC) was > 50 µM, the TGI (HOP-92 NSCLC) was > 50 µM and the GI50 (UACC-257 melanoma) was 19 µM. The TGI (UACC-257 melanoma) was > 50 µM, the GI50 (SNB-75 CNS) was 17.5 µM and the TGI (SNB-75 CNS) was 39.5 µM. It also gave a GI50 (HOP-62 NSCLC) of 13.7 µM, a TGI (HOP-62 NSCLC) of 35.9 µM and a GI50 (SK-MEL-2 melanoma) of 16 µM. The TGI (SK-MEL-2 melanoma) was > 50 µM, the GI50 (MDA-MB-435) was > 50 µM and the TGI (MDA-MB-435) was > 50 µM. The GI50 (SF-295 CNS) was > 50 µM, the TGI (SF-295 CNS) was > 50 µM and the GI50 (SW-620 colon) was 33.5 µM. The TGI (SW-620 colon) was > 50 µM, the GI50 (KM12 colon) was 30.3 µM and the TGI (KM12 colon) was > 50 µM. It also gave a GI50 (MDA-MB-231 breast) of 11.2 µM, a TGI (MDA-MB-231 breast) of 39.5 µM and a GI50 (EKVX NSCLC) of 7.51 µM. It also gave a TGI (EKVX NSCLC) of 22.4 µM, a GI50 (DU-145 prostate) of 9.33 µM and a TGI (DU-145 prostate) of 36.6 µM. For the same molecule, the GI50 (UACC-62 melanoma) was 8.78 µM, the TGI (UACC-62 melanoma) was 24.3 µM and the GI50 (K-562 leukemia) was > 50 µM. The TGI (K-562 leukemia) was > 50 µM.
